{"source": "patent US20100152129A1", "about": "(priority 2008, published 2010)", "key": {"[1]": {"tested_on": "Panc-1 cells", "test": "Cell cycle analysis by DNA content (propidium iodide, flow cytometry)", "assay_type": "cell-based", "settings": "control 5.5%", "method": "Understanding the status of cells cycles G1, S, G2 and M is indicative of the cytotoxic effect including apoptosis and DNA damage of anticancer drugs. In the current study FACS was used to measure the cell cycle stages in Panc 1 cells after exposure to anticancer drugs including drug combination. The synergistic effect of Gemcitabine with […]-00 on Panc-1 cancer cells was analyzed using propidium iodide based cell cycle analysis where total population of cells was sorted as sub G0, G1, S and G2/M populations according to total fluorescent intensity. […]-00 at a final concentration of 60 nM, 240 nM and 480 nM and Gemcitabine at a final concentration of 1 nM, 3 nM and 10 nM were analyzed in single dose and in all possible combinations of the dose range for the Gemcitabine and […]-00. Panc-1 cells were treated with Gemcitabine for 0 to 24 hrs. After 24 hrs the cells were washed twice with plain MEM. Fresh MEM with 10% serum (2 mL/well) was added to the wells, followed by treatment with […]-00 for 24 hrs to 96 hrs. After 96 hrs the treated cells were harvested, fixed, stained with propidium iodide and analyzed for specific cell arrest using DNA content analysis by flow cytometry. Adherent cells were trypsinized and washed with PBS or HBSS without Ca++ and Mg++ containing EDTA pH 8.0 and BSA. They were further isolated, centrifuged and total number of cells were counted and recorded. […]"}, "[2]": {"tested_on": "Panc-1 cells", "test": "CCK-8 based cytotoxicity assay", "assay_type": "cell-based", "settings": "Gem 10 nM", "from_the_text": "CCK-8 based cytotoxicity assay is a sensitive nonradioactive colorimetric assay for determining the number of viable cells in cell proliferation and cytotoxicity assays. WST-8 (2-(2-methoxy-4-nitrophenyl)-3-(4-nitrophenyl)-5-(2,4-disulfophenyl)-2H tetrazolium, monosodium salt) is bioreduced by cellular dehydrogenases to an orange formazan product that is soluble in tissue culture medium. The amount of formazan produced is directly proportional to the number of living cells.\nTest System: The Panc-1 cell line was procured from ATCC (American Tissue type Culture Collection USA, catalog number: CRL-1469) and the frozen vial was stored in liquid nitrogen container.\nPanc-1 cells were seeded at a density of 3000 cells/well in a 96 well plate and allowed to recover for 24 hrs in a CO2 incubator at 37° C. […] The final DMSO concentration was 0.5% in wells. Plates were incubated for 24, 48, and 72 hrs. At the end of incubation CCK-8 was added and kept at 37° C. for 3 hrs following which absorbance was measured at 450 nm."}, "[3]": {"tested_on": "Panc1 cells", "settings": "human"}}, "note": "Where two headings read alike, the source gives them in different places."}
{"smiles": "CN1CC[C@@H](c2c(O)cc(O)c3c(=O)cc(-c4ccccc4Cl)oc23)[C@@H]1CO.Cl", "note": "(relative stereo) [P276-00, (+)-trans-2-(2-Chloro-phenyl)-5,7-dihydroxy-8-(2-hydroxy-methyl-1-methyl-pyrrolidin-3-y1)-chromen-4-one hydrochloride]", "values": [{"measurement": "population of cells in sub G0 (apoptotic cells)", "setting": "[1]; 60 nM alone", "result": 17.6, "unit": "%"}]}
{"smiles": "Nc1ccn([C@@H]2O[C@H](CO)[C@@H](O)C2(F)F)c(=O)n1", "note": "[Gemcitabine, 2′, 2′-difluorodeoxycytidine]", "values": [{"measurement": "population of cells in sub G0 (apoptotic cells)", "setting": "[1]; 1 nM alone", "result": 16.85, "unit": "%"}, {"measurement": "% Cytotoxicity", "setting": "[2]; 24 hrs", "result": 21.997, "unit": "%"}, {"measurement": "% Cytotoxicity", "setting": "[2]; 48 hrs", "result": 27.571, "unit": "%"}, {"measurement": "% Cytotoxicity", "setting": "[2]; 72 hrs", "result": 31.47, "unit": "%"}, {"measurement": "% Cytotoxicity", "setting": "[2]; 72 hrs, listed as Gem", "result": 31.471, "unit": "%"}, {"measurement": "% Cytotoxicity in Panc1 cells", "setting": "[3]; 6 h", "result": 2.31, "unit": "%"}, {"measurement": "% Cytotoxicity in Panc1 cells", "setting": "[3]; 16 h", "result": 6.54, "unit": "%"}, {"measurement": "% Cytotoxicity in Panc1 cells", "setting": "[3]; 36 h", "result": 7.23, "unit": "%"}]}
